Source: patent US7763616B2, “Piperazine-piperidines with CXCR3 antagonist activity” (Schering Corporation, priority 2005, dated 2010)

Biological target: T1, human CXCR3 (N-delta 4) (Homo sapiens, UniProt P49682)
T1 construct: CD8 leader (N); Flag tag; expressed in transfected cells; membrane preparation
T1 sequence (P49682 5-368 limits assumed): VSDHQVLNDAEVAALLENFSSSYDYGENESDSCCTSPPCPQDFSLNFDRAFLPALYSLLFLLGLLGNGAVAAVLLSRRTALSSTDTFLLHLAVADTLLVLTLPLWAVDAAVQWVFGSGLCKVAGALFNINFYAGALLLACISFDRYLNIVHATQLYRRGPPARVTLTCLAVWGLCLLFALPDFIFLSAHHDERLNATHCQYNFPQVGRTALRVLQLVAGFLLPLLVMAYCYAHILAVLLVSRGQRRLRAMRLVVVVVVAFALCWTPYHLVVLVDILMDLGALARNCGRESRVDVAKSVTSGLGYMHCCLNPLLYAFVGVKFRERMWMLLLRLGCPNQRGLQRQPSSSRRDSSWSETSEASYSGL
Test: Human CXCR3 (N-delta 4) Scintillation Proximity Assay (SPA), [125I] IP-10 binding
Details: Ba/F3-hCXCR3 (N-delta 4) membranes, 25 pM [125I] IP-10; read-out: IC50 value
From the text: The inventive compounds can readily be evaluated to determine activity at the CXCR3 receptors by known methods, such as, for example, development of a human CXCR3 (N-delta 4) Binding Assay.
Cloning and Expression of Human CXCR3 (N-delta 4):
The DNA encoding human CXCR3 was cloned by PCR using human genomic DNA (Promega, Madison, Wis.) as a template. The PCR primers were designed based on the published sequence of human orphan receptor GPR9 (1) with incorporated restriction sites, a Kozak consensus sequence, CD8 leader and Flag tag. The PCR product was subcloned into the mammalian expression vector pME18Sneo, a derivative of the SR-alpha expression vector (designated as pME18Sneo-hCXCR3 (N-delta 4).
IL-3-dependent mouse pro-B cells Ba/F3 were transfected by electroporation in 0.4 ml Dulbecco's PBS containing 4×10^6 cells with 20 μg of pME18Sneo-hCXCR3 (N-delta 4) plasmid DNA. Cells were pulsed at 400 Volts, 100 OHMs, […]. The transfected cells were under selection with 1 mg/ml G418 (Life Technologies, Gaithersburg, Md.). G418-resistant Ba/F3 clones were screened for CXCR3 expression by specific binding of [^125I] IP10 (NEN Life Science Products, Boston, Mass.).
Preparation of Ba/F3-hCXCR3 (N-delta 4) Membranes:
Ba/F3 cells expressing human CXCR3 (N-delta 4) were pelleted and resuspended in the lysis buffer containing 10 mM HEPES, pH 7.5 and Complete® protease inhibitors (1 tablet per 100 ml) (Boehringer Mannheim, Indianapolis, Ind.) at a cell density of 20×10^6 cells per ml. After 5 minute incubation on ice, cells were transferred to 4639 cell disruption bomb (Parr Instrument, Moline, Ill.) and applied with 1,500 psi of nitrogen for 30 minutes on ice. Large cellular debris was removed by centrifugation at 1,000×g. Cell membrane in the supernatant was sedimented at 100,000×g. The membrane was resuspended in the lysis buffer supplemented with 10% sucrose and stored at −80° C. Total protein concentration of the membrane was determined by BCA method from Pierce (Rockford, Ill.).
Human CXCR3 (N-delta 4) Scintillation Proximity Assay (SPA):
For each assay point, 2 μg of membrane was preincubated for 1 hr with 300 μg wheat germ agglutinin (WGA) coated SPA beads (Amersham, Arlington Heights, Ill.) in the binding buffer (50 mM HEPES, 1 mM CaCl2, 5 mM MgCl2, 125 mM NaCl, 0.002% NaN3, 1.0% BSA) at room temperature. The beads were spun down, washed once, resuspended in the binding buffer and transferred to a 96-well Isoplate (Wallac, Gaithersburg, Md.). 25 pM of [^125I] IP-10 with tested compounds in a series of titration were added to start the reaction. After 3 hr reaction at room temperature, the amount of [^125I] IP10 bound to the SPA beads was determined with a Wallac 1450 Microbeta counter.

Row | Compound | IC50
1 | CC[C@H]1CN(c2nc3c(nc2Cl)CNc2c(c(=O)c2=O)N3)CCN1C1CCN(Cc2ccc(Cl)cc2F)CC1 [Compound 1] | 0.3 nM

Same assay, conditions: IC50 ratings; Ba/F3-hCXCR3 (N-delta 4) membranes, 25 pM [125I] IP-10; read-out: IC50

Row | Compound | IC50
2 | CC[C@H]1CN(c2nc3c(nc2Cl)C(=O)NCCNC(=O)N3)CCN1C1CCN(C(=O)c2ccc(Cl)nc2N)CC1 [Compound 34] | > 100 nM
3 | CC[C@H]1CN(c2cc3[nH]c(=O)[nH]c3cc2Cl)CCN1C1CCN(Cc2ccc(Cl)cc2F)CC1 [Compound 21] | 25 to 100 nM
4 | CC[C@H]1CN(c2nc3[nH]c(=O)[nH]c3nc2Cl)CCN1C1CCN([C@H](CO)c2ccc(Cl)cc2)CC1 [Compound 11] | < 25 nM
5 | CCc1nc2nc(N3CCN(C4CCN(Cc5ccc(Cl)cc5F)CC4)[C@@H](CC)C3)c(Cl)nc2c(=O)n1CC [Compound 15] | < 25 nM
6 | CC[C@H]1CN(c2nc3c(nc2Cl)CNC(=O)N3)CCN1C1CCN(C(=O)c2ccc(Cl)nc2N)CC1 [Compound 16] | < 25 nM
7 | CC[C@H]1CN(c2nc3c(nc2Cl)CNc2c(c(=O)c2=O)N3)CCN1C1CCN(Cc2ccc(Cl)cc2F)CC1 [Compound 1] | < 25 nM
8 | CC[C@H]1CN(c2nc3[nH]c(=O)n(Cc4ccc(Cl)cc4C#N)c3nc2Cl)CCN1C1CCN(Cc2ccc(Cl)cc2C#N)CC1 [Compound 26] | > 100 nM
9 | CC[C@H]1CN(c2nc3[nH]c(=O)[nH]c3nc2Cl)CCN1C1CCN(Cc2ccc(-n3cccn3)cc2)CC1 [Compound 17] | < 25 nM
10 | CC[C@H]1CN(c2nc3ncn(CC)c(=O)c3nc2Cl)CCN1C1CCN(Cc2ccc(Cl)cc2)CC1 [Compound 20] | 25 to 100 nM
11 | CC[C@H]1CN(c2nc3c(nc2Cl)[nH]c(=O)n3Cc2ccc(Cl)cc2C#N)CCN1C1CCN(Cc2ccc(Cl)cc2C#N)CC1 [Compound 22] | 25 to 100 nM
12 | CC[C@H]1CN(c2nc3[nH]c(=O)[nH]c3nc2Cl)CCN1C1CCN(C(=O)c2ccc(Cl)nc2N)CC1 [Compound 12] | < 25 nM
13 | CC[C@H]1CN(c2nc3[nH]c(=O)n(C)c(=O)c3nc2Cl)CCN1C1CCN(Cc2ccc(Cl)cc2)CC1 [Compound 7] | < 25 nM
14 | CC[C@H]1CN(c2cc3c(cc2Cl)nc(C(F)(F)F)n3C)CCN1C1CCN(Cc2ccc(Cl)cc2F)CC1 [Compound 37] | > 100 nM
15 | CC[C@H]1CN(c2nc3[nH]c(=O)[nH]c3nc2Cl)CCN1C1CCN([C@H](C(=O)OC)c2ccc(Cl)cc2)CC1 [Compound 30] | > 100 nM
16 | CC[C@H]1CN(c2nc3c(nc2Cl)CNC(=O)N3)CCN1C1CCN(Cc2ccc(Cl)cc2F)CC1 [Compound 4] | < 25 nM
17 | CC[C@H]1CN(c2nc3nc(C)n(CC)c(=O)c3nc2Cl)CCN1C1CCN(Cc2ccc(Cl)cc2F)CC1 [Compound 23] | 25 to 100 nM
18 | CC[C@H]1CN(c2cc3[nH]c(=O)c(=O)[nH]c3cc2Cl)CCN1C1CCN(Cc2ccc(Cl)cc2F)CC1 [Compound 29] | > 100 nM

Row | Compound | IC50
19 | CC[C@H]1CN(c2cc3[nH]c(=S)[nH]c3cc2Cl)CCN1C1CCN(Cc2ccc(Cl)cc2F)CC1 [Compound 28] | > 100 nM
20 | CC[C@H]1CN(c2nc3c(nc2Cl)CN/C(=N\C#N)N3)CCN1C1CCN(Cc2ccc(Cl)cc2F)CC1 [Compound 5] | < 25 nM
21 | CCc1nc2nc(N3CCN(C4CCN(Cc5ccc(Cl)cc5F)CC4)[C@@H](CC)C3)c(O)nc2c(=O)n1CC [Compound 38] | > 100 nM
22 | CC[C@H]1CN(c2cc3[nH]c(C(F)(F)F)nc3cc2Cl)CCN1C1CCN(Cc2ccc(Cl)cc2F)CC1 [Compound 9] | < 25 nM
23 | CC[C@H]1CN(c2nc3[nH]c(=O)[nH]c3nc2Cl)CCN1C1CCN(Cc2ccc(Cl)cc2)CC1 [Compound 2] | < 25 nM
24 | CC[C@H]1CN(c2cc3[nH]cnc3cc2Cl)CCN1C1CCN(Cc2ccc(Cl)cc2F)CC1 [Compound 25] | > 100 nM
25 | CC[C@H]1CN(c2nc3[nH]c(=O)[nH]c3nc2Cl)CCN1C1CCN(Cc2ccc(Cl)cc2C#N)CC1 [Compound 13] | < 25 nM
26 | CC[C@H]1CN(c2nc3c(nc2Cl)C(=O)NCCN3)CCN1C1CCN(C(=O)c2ccc(Cl)nc2N)CC1 [Compound 18] | 25 to 100 nM
27 | CC[C@H]1CN(c2nc3[nH]c(=O)[nH]c3nc2Cl)CCN1C1CCN(C(=O)c2ccc(Cl)cc2)CC1 [Compound 19] | 25 to 100 nM
28 | CC[C@H]1CN(c2cc3c(cc2Cl)nc(NS(C)(=O)=O)n3S(C)(=O)=O)CCN1C1CCN(Cc2ccc(Cl)cc2F)CC1 [Compound 35] | > 100 nM
29 | CCNC(=O)n1cnc2cc(Cl)c(N3CCN(C4CCN(Cc5ccc(Cl)cc5F)CC4)[C@@H](CC)C3)cc21 [Compound 31] | > 100 nM
30 | CC[C@H]1CN(c2nc3[nH]c(=O)n(C(=O)OC(C)(C)C)c3nc2Cl)CCN1C1CCN(Cc2ccc(Cl)cc2)CC1 [Compound 8] | < 25 nM
31 | CC[C@H]1CN(c2cc3[nH]c(-c4ccccc4)nc3cc2Cl)CCN1C1CCN(Cc2ccc(Cl)cc2F)CC1 [Compound 32] | > 100 nM
32 | CC[C@H]1CN(c2nc3[nH]c(=O)[nH]c3nc2Cl)CCN1C1CCN(Cc2ccc(Cl)cc2F)CC1 [Compound 6] | < 25 nM
33 | CC[C@H]1CN(c2cc3[nH]cnc3cc2Cl)CCN1C1CCN(Cc2ccc(Cl)cc2F)CC1 [Compound 24] | 25 to 100 nM
34 | CC[C@H]1CN(c2nc3[nH]c(=O)[nH]c3nc2Cl)CCN1C1CCN(C(C#N)c2ccc(Cl)cc2)CC1 (mixture of isomers) [Compound 33] | > 100 nM
35 | CC[C@H]1CN(c2nc3[nH]c(=O)[nH]c3nc2Cl)CCN1C1CCN([C@@H](CO)c2ccc(Cl)cc2)CC1 [Compound 3] | < 25 nM
